ChEMBL document CHEMBL6153137, “Design, Synthesis, and Biological Evaluation of Novel Orally Available Covalent CDK12/13 Dual Inhibitors for the Treatment of Tumors” (J Med Chem, 2025)
The source made the active and inactive calls. The rule behind the calls is not given here.

How the values were obtained:
[1] = Half life in female Sprague-Dawley rat at 15 mg/kg, po administered once daily via gavage for 28 days; format: ADME, organism-based; conditions: in vivo, time 28 day
[2] = Half-life in Balb/c mouse xenografted with human MV4-11 cells at 30 mg/kg, po administered once daily via gavage; format: ADME, organism-based; conditions: in vivo
[3] = target: Cytochrome P450 2C9 (Homo sapiens, UniProt P11712); test: Inhibition of CYP2C9 in human liver microsomes assessed as inhibition of diclofenac-4-hydroxylation incubated for 10 mins in presence of NADPH by LC-MS/MS analysis; format: ADME, Microsome
[4] = target: T1, Cyclin-dependent kinase 12/13 (Homo sapiens) (UniProt Q14004+Q9NYV4); test: Inhibition of CDK12/13 in human SUM149PT cells assessed as reduction in ATM gene expression at 500 nM incubated for 8 to 24 hrs by qPCR analysis; format: cell-based; conditions: time lower 8.0 hrs, time upper […]
[5] = AUC(0 to t) in male Sprague-Dawley rat at 20 mg/kg, po administered once daily via gavage for 28 days; format: ADME, organism-based; conditions: in vivo, 672 h, time 28 day
[6] = Ratio of drug level in tumor to plasma in Balb/c mouse xenografted with human SUM149PT cells at 60 mg/kg, po administered via gavage and measured after 2 hrs; format: ADME, organism-based
[7] = Cmax in male Sprague-Dawley rat at 10 mg/kg, po administered once daily via gavage for 28 days; format: ADME, organism-based; conditions: in vivo, time 28 day
[8] = GSH reactivity assessed as half life to adduct formation at 0.1 uM by LC-MS/MS analysis; format: physicochemical
[9] = tested on: SUM149PT; test: Induction of DNA damage in human SUM149PT cells assessed as increase in gammaH2AX phosphorylation at 250 to 1000 nM incubated for 1 to 24 hrs by western blot analysis; format: functional, cell-based; conditions: dose 250-1000 nM, time lower 1.0 hrs, time upper […]
[10] = Half life in male Sprague-Dawley rat at 20 mg/kg, po administered once daily via gavage for 28 days; format: ADME, organism-based; conditions: in vivo, time 28 day
[11] = tested on: HCC1395; test: Antiproliferative activity against human HCC1395 cells assessed as reduction in cell viability incubated for 7 days by CellTiter-Glo reagent based luminescence analysis; format: functional; conditions: HCC1395, 168 h
[12] = target: CDK9/cyclin T1 (Homo sapiens) (UniProt O60563+P50750); test: Inhibition of human recombinant N-terminal GST-tagged CDK9/N-terminal GST-tagged and C-terminal 8X His-tagged Cyclin T1 expressed in HEP Sf9 cells using ATP as substrate at 2 uM measured after 60 mins by ADP-Glo reagent based luminescence assay
[13] = AUC in Balb/c mouse xenografted with human MV4-11 cells at 30 mg/kg, po administered once daily via gavage; format: ADME, organism-based; conditions: in vivo
[14] = Cmax in female Sprague-Dawley rat at 15 mg/kg, po administered once daily via gavage for 28 days; format: ADME, organism-based; conditions: in vivo, time 28 day
[15] = AUC(0 to t) in male Sprague-Dawley rat at 40 mg/kg, po administered via gavage and measured on day 1; format: ADME, organism-based; conditions: in vivo, 24 h, time 1 day
[16] = Toxicity against male Sprague-Dawley rat assessed as body weight loss at 40 mg/kg, po administered once daily via gavage for 28 days and measured twice a week; format: organism-based; conditions: in vivo, 672 h, time 28 day
[17] = Cmax in female Sprague-Dawley rat at 30 mg/kg, po administered via gavage and measured on day 1; format: ADME, organism-based; conditions: in vivo, time 1 day
[18] = Cmax in female Sprague-Dawley rat at 7.5 mg/kg, po administered via gavage and measured on day 1; format: ADME, organism-based; conditions: in vivo, time 1 day
[19] = tested on: MV4-11; test: Antitumor activity against human MV4-11 cells xenografted in Balb/c nude mouse assessed as inhibition of tumor growth at 30 mg/kg, po administered once daily via gavage and measured on day 21; format: functional; conditions: MV4-11, 504 h, time 21 day, read-out: TGI
[20] = Half life in female Sprague-Dawley rat at 7.5 mg/kg, po administered once daily via gavage for 28 days; format: ADME, organism-based; conditions: in vivo, time 28 day
[21] = Toxicity against female Sprague-Dawley rat assessed as effect on chlorine level in blood at 7.5 to 30 mg/kg, po administered once daily via gavage for 28 days and measured on day 29; format: organism-based; conditions: in vivo, 696 h, dose 7.5-30 mg/kg, time 29 day
[22] = target: Cyclin-dependent kinase 2/cyclin E1 (Homo sapiens) (UniProt P24864+P24941); test: Inhibition of human recombinant N-terminal GST-tagged CDK2/N-terminal GST-tagged Cyclin E1 expressed in HEP Sf9 cells using ATP as substrate at 2 uM measured after 60 mins by ADP-Glo reagent based luminescence analysis
[23] = AUC(0 to t) in male Sprague-Dawley rat at 40 mg/kg, po administered once daily via gavage for 28 days; format: ADME, organism-based; conditions: in vivo, 672 h, time 28 day
[24] = Cmax in female Sprague-Dawley rat at 7.5 mg/kg, po administered once daily via gavage for 28 days; format: ADME, organism-based; conditions: in vivo, time 28 day
[25] = tested on: MV4-11; test: Antiproliferative activity against human MV4-11 cells assessed as reduction in cell viability incubated for 7 days by CellTiter-Glo reagent based luminescence analysis; format: functional; conditions: MV4-11, 168 h
[26] = Toxicity against male Sprague-Dawley rat assessed as increase in neutrophils content at 10 to 40 mg/kg, po administered once daily via gavage for 28 days and measured on day 29; format: organism-based; conditions: in vivo, 696 h, dose 10-40 mg/kg, time 29 day
[27] = Toxicity against female Sprague-Dawley rat assessed as effect on glucose level in blood at 7.5 to 30 mg/kg, po administered once daily via gavage for 28 days and measured on day 29; format: organism-based; conditions: in vivo, 696 h, dose 7.5-30 mg/kg, time 29 day
[28] = AUC in Balb/c mouse xenografted with human SUM149PT cells at 30 mg/kg, po administered once daily via gavage; format: ADME, organism-based; conditions: in vivo
[29] = target: T1, Cyclin-dependent kinase 12/13 (Homo sapiens); test: Covalent inhibition of CDK12/13 in human SUM149PT cells assessed as reduction in level of phosphorylation of Ser2 on RNA Pol II CTD at 500 nM incubated for 12 hrs followed by drug wash-out and measured after 72 hrs by western blot analysis; format: cell-based
[30] = target: Mitogen-activated protein kinase 10 (Homo sapiens) (UniProt P53779); test: Inhibition of JNK3 (unknown origin) at 5 uM by DiscoverX KinomeScan ScanMAX analysis
[31] = target: T1, Cyclin-dependent kinase 12/13 (Homo sapiens); test: Inhibition of CDK12/13 in human SUM149PT cells assessed as reduction in level of phosphorylation of Ser2 on RNA Pol II CTD incubated for 24 hrs by western blot analysis; format: cell-based; conditions: dose 250-1000 nM
[32] = Ratio of drug level in tumor to plasma in Balb/c mouse xenografted with human SUM149PT cells at 30 mg/kg, po administered via gavage and measured after 2 hrs; format: ADME, organism-based
[33] = Half life in male Sprague-Dawley rat at 10 mg/kg, po administered once daily via gavage for 28 days; format: ADME, organism-based; conditions: in vivo, time 28 day
[34] = target: T1, Cyclin-dependent kinase 12/13 (Homo sapiens); test: Inhibition of CDK12/13 in human SUM149PT cells assessed as reduction in FANCI gene expression at 500 nM incubated for 8 to 24 hrs by qPCR analysis; format: cell-based; conditions: time lower 8.0 hrs, time upper […]
[35] = Cmax in female Sprague-Dawley rat at 15 mg/kg, po administered via gavage and measured on day 1; format: ADME, organism-based; conditions: in vivo, time 1 day
[36] = AUC in Balb/c mouse xenografted with human MV4-11 cells at 15 mg/kg, po administered once daily via gavage; format: ADME, organism-based; conditions: in vivo

Sequence of Mitogen-activated protein kinase 10 (Homo sapiens) (P53779 whole entry): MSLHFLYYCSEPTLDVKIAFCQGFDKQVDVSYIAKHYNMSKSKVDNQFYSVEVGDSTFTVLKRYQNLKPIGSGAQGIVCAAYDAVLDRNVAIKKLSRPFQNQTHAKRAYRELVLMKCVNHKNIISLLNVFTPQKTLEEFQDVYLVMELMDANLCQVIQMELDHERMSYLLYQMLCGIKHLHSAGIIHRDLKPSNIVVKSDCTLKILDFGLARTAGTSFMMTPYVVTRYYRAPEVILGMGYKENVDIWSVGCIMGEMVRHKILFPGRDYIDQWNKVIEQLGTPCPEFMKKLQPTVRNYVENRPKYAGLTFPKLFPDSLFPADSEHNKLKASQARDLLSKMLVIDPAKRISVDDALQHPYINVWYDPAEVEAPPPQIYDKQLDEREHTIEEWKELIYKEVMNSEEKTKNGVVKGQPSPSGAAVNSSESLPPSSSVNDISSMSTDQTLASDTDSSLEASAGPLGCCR
Sequence of Cytochrome P450 2C9 (P11712 whole entry): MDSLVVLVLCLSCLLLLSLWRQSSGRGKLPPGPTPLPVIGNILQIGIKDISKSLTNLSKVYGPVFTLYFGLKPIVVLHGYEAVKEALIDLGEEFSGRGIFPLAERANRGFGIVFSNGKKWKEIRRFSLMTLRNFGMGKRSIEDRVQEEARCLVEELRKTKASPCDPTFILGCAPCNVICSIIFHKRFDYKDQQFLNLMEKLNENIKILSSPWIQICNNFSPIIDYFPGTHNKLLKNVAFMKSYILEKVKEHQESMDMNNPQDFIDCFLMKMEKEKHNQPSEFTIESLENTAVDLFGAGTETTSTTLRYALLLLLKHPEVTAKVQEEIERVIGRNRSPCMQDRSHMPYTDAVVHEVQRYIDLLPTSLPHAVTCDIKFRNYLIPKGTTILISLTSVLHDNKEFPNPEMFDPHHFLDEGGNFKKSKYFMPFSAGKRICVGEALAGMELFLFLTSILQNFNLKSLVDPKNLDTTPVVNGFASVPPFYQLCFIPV

With C=CC(=O)N1CCc2c(ncnc2N2CC[C@@H](Nc3ncc(Cl)c(OC)n3)C2)C1 the half-life [1] was 2.3 h, the half-life [2] was 1.17 h and the IC50 [3] was > 50000 nM. For the same compound, the inhibition [4] was “Active”, the AUCt [5] was 2870 ng·h/mL and the Kp at 2 h [6] was 0.42. The Cmax [7] was 576 ng/mL, the t1/2 [8] was 1.48 h and the Activity [9] was “Active”. For the same compound, the half-life [10] was 4.2 h, the IC50 [11] was 69 nM and the inhibition [12] was 75%. It also gave an AUC [13] of 4190 ng·h/mL, a Cmax [14] of 1800 ng/mL and an AUCt [15] of 7120 ng·h/mL. The Activity [16] was “Toxic”, the Cmax [17] was 2200 ng/mL and the Cmax [18] was 870 ng/mL. For the same compound, the inhibition in vivo at 30 mg/kg [19] was 95%, the half-life [20] was 2 h and the Activity [21] was “Non-toxic”. The inhibition [22] was 63%, the AUCt [23] was 6070 ng·h/mL and the Cmax [24] was 800 ng/mL. For the same compound, the IC50 [25] was 84 nM, the Activity [26] was “Toxic” and the Activity [27] was “Non-toxic”. The AUC [28] was 2690 ng·h/mL, the inhibition [29] was “Active” and the inhibition [30] was “Active”. The inhibition [31] was “Dose-dependent-effect”, the Kp at 2 h [32] was 0.38 and the half-life [33] was 3.5 h. The inhibition [34] was “Active”, the Cmax [35] was 1280 ng/mL and the AUC [36] was 2140 ng·h/mL.
